From DBAASP come the findings set out here.

Among the test systems are Escherichia coli K-12; Escherichia coli D31; Acinetobacter baumannii; Candida albicans; Salmonella typhimurium; Proteus mirabilis; Shigella dysenteriae; Micrococcus luteus; Bacillus subtilis; Klebsiella pneumoniae; Escherichia coli; Pseudomonas aeruginosa; Serratia marcescens.
Common to all, as to assay: ≥ marks a high value that may be exact or a test limit, other limits are often not marked, values filed in µg/mL are converted to µM
Assay [1] has as its system Staphylococcus aureus NCTC 10788.
Assay [2] deals with Pseudomonas aeruginosa ATCC 27853.
In assay [3] the test system is Escherichia coli NCTC 10418.
In assay [4] the test system is Candida albicans NCYC 1467.
Assay [5] concerns Klebsiella pneumoniae ATCC 43816.
Assay [6] has as its system Staphylococcus aureus NCTC 12493.
Assay [7] concerns Enterococcus faecalis NCTC 12697.
The subject of assay [8] is Streptococcus mutans ATCC 25175.
The subject of assay [9] is Candida albicans ATCC 10231.
The subject of assay [10] is Acinetobacter baumannii NM8.
Assay [11] concerns Escherichia coli ATCC 25726.
In assay [12] the test system is Acinetobacter baumannii NM109.
Assay [13] has as its system Acinetobacter baumannii NM75.
For assay [14], the system named is Pseudomonas aeruginosa ATCC 15442.
Assay [15] concerns Candida albicans ATCC 90028.
Assay [16] has as its system Staphylococcus aureus ATCC 25923.
Assay [17] concerns Acinetobacter baumannii NM35.
In assay [18] the test system is Staphylococcus aureus USA 300.
The subject of assay [19] is Acinetobacter baumannii NM124.
For assay [20], the system named is Bacillus cereus ATCC 11778.
Assay [21] concerns Escherichia coli CCT 1457.
In assay [22] the test system is Staphylococcus aureus CCT 2580.
For assay [23], the system named is Klebsiella pneumoniae ATCC 700603.
Assay [24] deals with Staphylococcus epidermidis RP62A.
The test system of assay [25] is Stenotrophomonas maltophilia B32/4.
In assay [26] the test system is Staphylococcus epidermidis RP62A/1.
Assay [27] relates to Micrococcus luteus DSM 20030.

Converted amounts (≈) assume the structure as drawn. “And” between values parts separate entries of the source, which are not always exact repeats. Identical values can stand only once.

Turning to `CC[C@H](C)[C@H](NC(=O)[C@H](C)NC(=O)[C@H](CO)NC(=O)[C@@H](NC(=O)[C@H](C)NC(=O)[C@H](CCCCN)NC(=O)[C@@H]1CCCN1C(=O)[C@@H](NC(=O)[C@H](CC(C)C)NC(=O)[C@H](CO)NC(=O)[C@H](CC(C)C)NC(=O)[C@@H](N)Cc1ccccc1)[C@@H](C)CC)[C@@H](C)CC)C(=O)N[C@@H](CO)C(=O)N[C@@H](C)C(=O)N[C@@H](CC(C)C)C(=O)N[C@@H](C)C(=O)N[C@@H](CC(N)=O)C(=O)N[C@@H](Cc1cnc[nH]1)C(=O)N[C@@H](Cc1ccccc1)C(N)=O` [FLSLIPKAISAISALANHF], the MIC was 4 µM (≈ 8.05 µg/mL) in assay [1]; over 512 µM in assay [2]; at least 64 µM in assay [3]; 8 µM (≈ 16.1 µg/mL) in assay [4]; at least 256 µM in [5]; 16 µM (≈ 32.2 µg/mL) in assay [6]. The compound also registered an MIC in [7] of at least 64 µM.
Consider `CC[C@H](C)[C@H](NC(=O)CN)C(=O)N[C@@H](Cc1c[nH]c2ccccc12)C(=O)N[C@@H](CC(=O)O)C(=O)N[C@H](C(=O)N[C@H](C(=O)N[C@@H](CCCCN)C(=O)N[C@@H](CO)C(=O)N[C@@H](CCSC)C(=O)NCC(=O)N[C@@H](CCCCN)C(=O)N[C@H](C(=O)N[C@@H](Cc1ccccc1)C(=O)N[C@@H](C)C(=O)NCC(=O)N[C@@H](CCCCN)C(=O)N[C@H](C(=O)N[C@@H](CC(C)C)C(=O)N[C@@H](CCC(N)=O)C(=O)N[C@@H](CC(N)=O)C(=O)N[C@@H](CC(C)C)C(N)=O)[C@@H](C)CC)C(C)C)[C@@H](C)CC)[C@@H](C)O` [GIWDTIKSMGKVFAGKILQNL], for which the MIC with Escherichia coli K-12 is 25 µM (≈ 58 µg/mL); in the assay with Escherichia coli D31 it was at least 32 µM; in assay [8], at least 100 µM; against Acinetobacter baumannii, 12.5 µM (≈ 29 µg/mL); in assay [9] it was 16 µM (≈ 37.1 µg/mL); in assay [10], 6 µM (≈ 13.9 µg/mL). In addition, the minimal inhibitory concentration (MIC) in [11] was 25 µM (≈ 58 µg/mL); in [12] it was 6 µM (≈ 13.9 µg/mL); in assay [13], 3 µM (≈ 6.96 µg/mL); in [14] it was at least 100 µM; in assay [15], 12.5 µM (≈ 29 µg/mL); in assay [16], 25 µM and 22.6 µM. Moreover, the MIC was 6 µM (≈ 13.9 µg/mL) in assay [17], 25 µM (≈ 58 µg/mL) in assay [18] and 6 µM (≈ 13.9 µg/mL) in [19].
Regarding `CC[C@H](C)[C@H](N)C(=O)N[C@@H](CC(=O)O)C(=O)N[C@@H](Cc1c[nH]c2ccccc12)C(=O)N[C@@H](CC(C)C)C(=O)N[C@@H](CCCCN)C(=O)N[C@@H](CC(C)C)C(=O)NCC(=O)N[C@@H](CCCCN)C(=O)N[C@@H](CCSC)C(=O)N[C@H](C(=O)N[C@@H](CCSC)C(=O)N[C@@H](CC(=O)O)C(=O)N[C@H](C(=O)N[C@@H](CC(C)C)C(N)=O)C(C)C)C(C)C` [IDWLKLGKMVMDVL], the MIC in assay [20] was at least 37.3 µM; in assay [14] it was at least 301 µM; in [21], at least 37.3 µM; in assay [22], 18.7 µM (≈ 31 µg/mL).
In the case of `CC[C@H](C)[C@H](N)C(=O)N[C@@H](CC(C)C)C(=O)NCC(=O)N[C@@H](CCCCN)C(=O)N[C@@H](CC(C)C)C(=O)N[C@@H](CC(C)C)C(=O)N[C@@H](CO)C(=O)N[C@H](C(=O)N[C@@H](C)C(=O)N[C@@H](C)C(=O)N[C@@H](CCCCN)C(=O)N[C@@H](CC(C)C)C(=O)N[C@@H](CC(C)C)C(=O)N[C@@H](CO)C(=O)N[C@@H](CC(N)=O)C(=O)N[C@@H](CC(C)C)C(N)=O)[C@@H](C)O` [ILGKLLSTAAKLLSNL], the MIC in assay [23] was 32 µM (≈ 52.9 µg/mL); in [24], 4 µM (≈ 6.62 µg/mL); in assay [2], 32 µM (≈ 52.9 µg/mL); in assay [10], 8 µM (≈ 13.2 µg/mL); in assay [11], at least 32 µM; in assay [25], at least 32 µM. The MIC in assay [26] was 4 µM (≈ 6.62 µg/mL); in [15] it was 16 µM (≈ 26.5 µg/mL); in assay [16], 4 µM (≈ 6.62 µg/mL).
On to `CC[C@H](C)[C@H](N)C(=O)N[C@@H](CO)C(=O)N[C@@H](CCC(N)=O)C(=O)N[C@@H](CO)C(=O)N[C@@H](CC(=O)O)C(=O)N[C@@H](C)C(=O)N[C@H](C(=O)N[C@@H](CC(C)C)C(=O)N[C@@H](CO)C(=O)N[C@@H](C)C(=O)N[C@H](C(=O)N[C@@H](Cc1c[nH]c2ccccc12)C(=O)N[C@@H](CO)C(=O)NCC(=O)N[C@H](C(=O)N[C@@H](CCCCN)C(=O)N[C@@H](CO)C(=O)N[C@@H](CC(C)C)C(=O)N[C@@H](Cc1ccccc1)C(N)=O)[C@@H](C)CC)[C@@H](C)CC)[C@@H](C)CC` [ISQSDAILSAIWSGIKSLF], for which the MIC in assay [27] is 4 µM (≈ 8.14 µg/mL).
Turning to `CC[C@H](C)[C@H](NC(=O)[C@@H](N)C(C)C)C(=O)N1CCC[C@H]1C(=O)N[C@@H](Cc1ccccc1)C(=O)N[C@H](C(=O)N[C@@H](C)C(=O)N[C@@H](CO)C(=O)N[C@H](C(=O)N[C@@H](C)C(=O)N[C@@H](C)C(=O)N[C@@H](CCC(=O)O)C(=O)N[C@@H](CCSC)C(=O)N[C@@H](CCSC)C(=O)N[C@@H](Cc1cnc[nH]1)C(=O)N[C@@H](Cc1cnc[nH]1)C(=O)N[C@H](C(=O)N[C@@H](Cc1ccc(O)cc1)C(=O)N[C@H]1CSSC[C@@H](C(=O)O)NC(=O)[C@H](CCCN=C(N)N)NC(=O)[C@H](CCCCN)NC(=O)[C@H](CO)NC(=O)[C@H](C)NC(=O)[C@H](C)NC1=O)C(C)C)C(C)C)C(C)C` [VIPFVASVAAEMMHHVYCAASKRC], the MIC in the assay with Candida albicans is 76.3 µM (≈ 200 µg/mL); against Salmonella typhimurium, at least 76.3 µM; against Proteus mirabilis, at least 76.3 µM; with Shigella dysenteriae, at least 76.3 µM; against Micrococcus luteus, 9.54 µM (≈ 25 µg/mL); against Bacillus subtilis, at least 76.3 µM. For the same compound, the minimal inhibitory concentration (MIC) is over 76.3 µM with Klebsiella pneumoniae, over 76.3 µM with Escherichia coli, over 76.3 µM in the assay with Pseudomonas aeruginosa and at least 76.3 µM in the assay on Serratia marcescens.
